Experimental data: PubChem BioAssay AID248 (DTP/NCI, 2004)
Toxic doses and inconclusive results are not listed. No stated cut-off is given here; in the data, active means T/C of 150% or more; inactive means T/C below 125%.

Test system: L1210 leukemia ip in BDF1 mice, survival T/C
Experiment: NCI In Vivo Anticancer Drug Screen. Data for tumor model L1210 Leukemia (intraperitoneal) in B6D2F1 (BDF1) mice
Details: endpoint: mean survival time, higher = longer survival
In short: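 Survival endpoint. Drug-treated group vs vehicle group, expressed as T divided by C. Tumor passaged by transplantation.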

[1] = dose: 100.0 mg/kg/injection, schedule: Q04DX003 (ip), vehicle: saline
[2] = dose: 200.0 mg/kg/injection, schedule: Q04DX003 (ip), vehicle: saline
[3] = dose: 400.0 mg/kg/injection, schedule: Q04DX003 (ip), vehicle: saline
[4] = dose: 100.0 mg/kg/injection, schedule: Q01DX001 (ip), vehicle: saline
[5] = dose: 200.0 mg/kg/injection, schedule: Q01DX001 (ip), vehicle: saline
[6] = dose: 400.0 mg/kg/injection, schedule: Q01DX001 (ip), vehicle: saline
[7] = dose: 100.0 mg/kg/injection, schedule: Q01DX009 (ip), vehicle: saline
[8] = dose: 200.0 mg/kg/injection, schedule: Q01DX009 (ip), vehicle: saline
[9] = dose: 25.0 mg/kg/injection, schedule: Q04DX003 (ip), vehicle: saline
[10] = dose: 50.0 mg/kg/injection, schedule: Q01DX001 (ip), vehicle: saline
[11] = dose: 50.0 mg/kg/injection, schedule: Q04DX003 (ip), vehicle: Klucel (hydroxypropylcellulose) (HPC)
[12] = dose: 100.0 mg/kg/injection, schedule: Q04DX003 (ip), vehicle: Klucel (hydroxypropylcellulose) (HPC)
[13] = dose: 100.0 mg/kg/injection, schedule: Q04DX002 (ip), vehicle: saline with Tween-80
[14] = dose: 200.0 mg/kg/injection, schedule: Q04DX002 (ip), vehicle: saline with Tween-80
[15] = dose: 400.0 mg/kg/injection, schedule: Q04DX002 (ip), vehicle: saline with Tween-80
[16] = dose: 200.0 mg/kg/injection, schedule: Q04DX003 (ip), vehicle: Klucel (hydroxypropylcellulose) (HPC)

Measured: T/C

c1cc[c]([Sn]([c]2ccccc2)([CH]2CCCCC2)[CH]2CCCCC2)cc1
inactive: dose: 75.0 mg/kg/injection, schedule: Q04DX002 (ip), vehicle: gum acacia 96 % of control | dose: 150.0 mg/kg/injection, schedule: Q04DX002 (ip), vehicle: gum acacia 101 % of control | dose: 300.0 mg/kg/injection, schedule: Q04DX002 (ip), vehicle: gum acacia 96 % of control

NC1CCCCC1
inactive: [1] 109 % of control | [2] 102 % of control | [3] 100 % of control

O=[N+]([O-])c1ccc(C[N+]2(CCC[N+]3(Cc4ccc([N+](=O)[O-])cc4)CCCC3)CCCC2)cc1
inactive: dose: 9.38 mg/kg/injection, schedule: Q01DX001 (ip), vehicle: other 107 % of control | dose: 18.75 mg/kg/injection, schedule: Q01DX001 (ip), vehicle: other 105 % of control

N#Cc1cn(C2OC(CO)C(O)C2O)c2ncnc(Cl)c12 (stereo not given)
inactive: [4] 103 % of control | [5] 104 % of control | [6] 103 % of control

CCOC1OCN(C(C)(C)C)CC1(C)C (stereo not given)
inactive: [7] 118 % of control | [8] 116 % of control

C[n+]1ccc2ccccc2c1CCCc1nccc2ccccc12
inactive: dose: 6.25 mg/kg/injection, schedule: Q01DX009 (ip), vehicle: saline with Tween-80 111 % of control | dose: 6.25 mg/kg/injection, schedule: Q04DX003 (ip), vehicle: saline 97 % of control | dose: 12.5 mg/kg/injection, schedule: Q01DX009 (ip), vehicle: saline with Tween-80 117 % of control | dose: 12.5 mg/kg/injection, schedule: Q04DX003 (ip), vehicle: saline 100 % of control | dose: 25.0 mg/kg/injection, schedule: Q01DX009 (ip), vehicle: saline with Tween-80 112 % of control | [9] 114 % of control

Nc1ccc(CCCC(=O)Nc2ccc(S(=O)(=O)F)cc2)cc1
inactive: [4] 101 % of control | [5] 97 % of control | [6] 103 % of control

CC(C)C(N=Cc1cc(Cl)ccc1O)C(=O)O (stereo not given)
inactive: dose: 100.0 mg/kg/injection, schedule: Q01DX001 (ip), vehicle: steriod suspending solution 105 % of control | dose: 200.0 mg/kg/injection, schedule: Q01DX001 (ip), vehicle: steriod suspending solution 94 % of control | dose: 400.0 mg/kg/injection, schedule: Q01DX001 (ip), vehicle: steriod suspending solution 104 % of control

O=C(c1ccc(Cl)cc1)C(NCCO)c1ccc(Cl)cc1 (stereo not given)
inactive: [10] 97 % of control | [4] 101 % of control | [5] 95 % of control | [6] 95 % of control

COc1ccccc1OCCOCCNC1C(C)CCCC1(C)C (stereo not given)
inactive: dose: 12.5 mg/kg/injection, schedule: Q04DX003 (ip), vehicle: Klucel (hydroxypropylcellulose) (HPC) 100 % of control | dose: 25.0 mg/kg/injection, schedule: Q04DX003 (ip), vehicle: Klucel (hydroxypropylcellulose) (HPC) 94 % of control | [11] 93 % of control | [12] 90 % of control

Cc1ccc(S(=O)(=O)NCl)cc1
inactive: [1] 99 % of control

CCOP(=O)(OCC)O/N=C(/SC)C(C)C
inactive: dose: 5.0 mg/kg/injection, schedule: Q01DX001 (ip), vehicle: saline 100 % of control | dose: 10.0 mg/kg/injection, schedule: Q01DX001 (ip), vehicle: saline 111 % of control | dose: 20.0 mg/kg/injection, schedule: Q01DX001 (ip), vehicle: saline 103 % of control | dose: 40.0 mg/kg/injection, schedule: Q01DX001 (ip), vehicle: saline 100 % of control | dose: 80.0 mg/kg/injection, schedule: Q01DX001 (ip), vehicle: saline 116 % of control

Cc1ccccc1NC(=O)CC#N
inactive: [13] 90 % of control | [14] 101 % of control | [15] 94 % of control

COP1(=O)C=C(C)CC1 (stereo not given)
inactive: [4] 95 % of control | [5] 95 % of control | [6] 95 % of control

CCCCCCCCC1SC1CCCCCCCC(=O)OCCCOC(=O)CCCCCCCC1SC1CCCCCCCC (stereo not given)
inactive: dose: 100.0 mg/kg/injection, schedule: Q01DX009 (ip), vehicle: saline with Tween-80 98 % of control | dose: 200.0 mg/kg/injection, schedule: Q01DX009 (ip), vehicle: saline with Tween-80 93 % of control | dose: 400.0 mg/kg/injection, schedule: Q01DX009 (ip), vehicle: saline with Tween-80 96 % of control

CCOC(=O)/C=C/c1c(C)[nH]c(=O)[nH]c1=O
inactive: [4] 94 % of control | dose: 150.0 mg/kg/injection, schedule: Q04DX003 (ip), vehicle: saline 102 % of control | [5] 93 % of control | dose: 300.0 mg/kg/injection, schedule: Q04DX003 (ip), vehicle: saline 96 % of control | [6] 93 % of control | dose: 600.0 mg/kg/injection, schedule: Q04DX003 (ip), vehicle: saline 103 % of control

CCOC1OC(c2ccccc2)=NS(=O)(=O)C1(C)C (stereo not given)
inactive: dose: 100.0 mg/kg/injection, schedule: Q04DX002 (ip), vehicle: Klucel (hydroxypropylcellulose) (HPC) 103 % of control | dose: 200.0 mg/kg/injection, schedule: Q04DX002 (ip), vehicle: Klucel (hydroxypropylcellulose) (HPC) 106 % of control | dose: 400.0 mg/kg/injection, schedule: Q04DX002 (ip), vehicle: Klucel (hydroxypropylcellulose) (HPC) 103 % of control

ClCCOCC1CO1 (stereo not given)
inactive: [9] 92 % of control | dose: 50.0 mg/kg/injection, schedule: Q04DX003 (ip), vehicle: saline 88 % of control | [1] 97 % of control

CCc1cc(CC)c(CC)c(CC)c1
inactive: [7] 100 % of control | [1] 107 % of control | [8] 87 % of control | [2] 105 % of control | dose: 400.0 mg/kg/injection, schedule: Q01DX009 (ip), vehicle: saline 108 % of control | [3] 91 % of control

CCCC(C)CCCNCCOC(=O)c1cccc(N)c1 (stereo not given)
inactive: dose: 75.0 mg/kg/injection, schedule: Q01DX001 (ip), vehicle: other 97 % of control | dose: 150.0 mg/kg/injection, schedule: Q01DX001 (ip), vehicle: other 94 % of control

CCOC(=O)C1=C2c3ccc4cc(OC)ccc4c3CCC2(C)C(=O)C1 (stereo not given)
inactive: dose: 100.0 mg/kg/injection, schedule: Q04DX003 (sc), vehicle: steriod suspending solution 102 % of control | dose: 200.0 mg/kg/injection, schedule: Q04DX003 (sc), vehicle: steriod suspending solution 109 % of control | dose: 400.0 mg/kg/injection, schedule: Q04DX003 (sc), vehicle: steriod suspending solution 109 % of control

O=C(NC/C=C/Br)NC1CCCc2ccccc21 (stereo not given)
inactive: dose: 100.0 mg/kg/injection, schedule: Q01DX009 (ip), vehicle: other 106 % of control | dose: 200.0 mg/kg/injection, schedule: Q01DX009 (ip), vehicle: other 110 % of control | dose: 400.0 mg/kg/injection, schedule: Q01DX009 (ip), vehicle: other 100 % of control

CC(=O)Nc1ccc(N=Nc2ccccc2)cc1C
inactive: [11] 100 % of control | [12] 96 % of control | [16] 96 % of control

O=C(NCc1ccccc1)Nc1ccccc1
inactive: [12] 96 % of control | [16] 100 % of control | dose: 400.0 mg/kg/injection, schedule: Q04DX003 (ip), vehicle: Klucel (hydroxypropylcellulose) (HPC) 96 % of control

CC/C(C)=C\CC/C(C)=C/COc1cccc(CC)c1
inactive: [13] 100 % of control | [14] 94 % of control | [15] 94 % of control

CC(/C=N/N=C(\N)N(C)C)=N\N=C(/N)N(C)C
inactive: dose: 95.0 mg/kg/injection, schedule: Q01DX Z (oral), vehicle: carboxymethylcellulose (CMC) 104 % of control | dose: 190.0 mg/kg/injection, schedule: Q01DX Z (oral), vehicle: carboxymethylcellulose (CMC) 110 % of control | dose: 240.0 mg/kg/injection, schedule: Q01DX Z (ip), vehicle: carboxymethylcellulose (CMC) 96 % of control | dose: 380.0 mg/kg/injection, schedule: Q01DX Z (oral), vehicle: carboxymethylcellulose (CMC) 106 % of control | dose: 760.0 mg/kg/injection, schedule: Q01DX Z (oral), vehicle: carboxymethylcellulose (CMC) 112 % of control

O=c1ccc(=O)n(CCc2ccccn2)[nH]1
inactive: [10] 97 % of control | [4] 97 % of control | [5] 94 % of control | [6] 97 % of control

COc1ccc([N+](=O)[O-])cc1NC(C)=O
inactive: dose: 100.0 mg/kg/injection, schedule: Q01DX001 (ip), vehicle: carboxymethylcellulose (CMC) 99 % of control | dose: 200.0 mg/kg/injection, schedule: Q01DX001 (ip), vehicle: carboxymethylcellulose (CMC) 99 % of control | dose: 400.0 mg/kg/injection, schedule: Q01DX001 (ip), vehicle: carboxymethylcellulose (CMC) 99 % of control
